The values that follow come from PMC8312956, “T. cruzi DNA polymerase beta (Tcpolβ) is phosphorylated in vitro by CK1, CK2 and TcAUK1 leading to the potentiation of its DNA synthesis activity” (PLoS Neglected Tropical Diseases, 2021).

The structures appear in SMILES notation.

The term IC50 denotes the concentration that gives 50% inhibition. A lower IC50 goes with greater potency in that assay.

One assay has as its target T1, TcCK2α (Trypanosoma cruzi, UniProt Q4E340).
T1 construct: gene Tc00.1047053508741.320; recombinant TcCK2α in hybrid CK2 holoenzyme; with S. pombe CK2β (pCK2β)
Put plainly: […]-ATP phosphorylation of pCK2β, SDS-PAGE autoradiography. In kind it is biochemical.

Another assay has as its target T2, TcAUK1 (Trypanosoma cruzi, UniProt Q4DKE3).
T2 construct: gene Tc00.1047053508817.80; recombinant, expressed in E. coli (pET15b), renatured and purified
As to the kind of experiment: […]-ATP phosphorylation of Tcpolβ, SDS-PAGE autoradiography; over […] decrease at […]. In kind it is biochemical.

T1 sequence (P40232 whole entry): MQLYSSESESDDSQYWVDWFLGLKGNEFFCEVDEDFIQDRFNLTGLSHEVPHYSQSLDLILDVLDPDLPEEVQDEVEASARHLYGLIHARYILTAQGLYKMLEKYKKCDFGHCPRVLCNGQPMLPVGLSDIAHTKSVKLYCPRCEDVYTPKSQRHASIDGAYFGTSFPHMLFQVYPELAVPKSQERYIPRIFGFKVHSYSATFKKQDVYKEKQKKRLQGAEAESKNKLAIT
T1 sequence (Q4E340 entry or part of it): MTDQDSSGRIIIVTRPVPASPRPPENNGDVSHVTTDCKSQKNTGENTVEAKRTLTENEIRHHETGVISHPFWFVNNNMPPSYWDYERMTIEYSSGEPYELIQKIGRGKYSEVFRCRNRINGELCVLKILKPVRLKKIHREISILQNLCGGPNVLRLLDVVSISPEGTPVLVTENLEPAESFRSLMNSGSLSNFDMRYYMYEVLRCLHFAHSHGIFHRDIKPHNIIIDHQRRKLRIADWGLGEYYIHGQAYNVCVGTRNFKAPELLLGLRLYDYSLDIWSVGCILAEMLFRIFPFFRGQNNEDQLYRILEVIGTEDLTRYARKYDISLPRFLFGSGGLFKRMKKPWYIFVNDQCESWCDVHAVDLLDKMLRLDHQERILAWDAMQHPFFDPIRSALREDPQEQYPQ
T2 sequence (Q4DKE3 entry or part of it): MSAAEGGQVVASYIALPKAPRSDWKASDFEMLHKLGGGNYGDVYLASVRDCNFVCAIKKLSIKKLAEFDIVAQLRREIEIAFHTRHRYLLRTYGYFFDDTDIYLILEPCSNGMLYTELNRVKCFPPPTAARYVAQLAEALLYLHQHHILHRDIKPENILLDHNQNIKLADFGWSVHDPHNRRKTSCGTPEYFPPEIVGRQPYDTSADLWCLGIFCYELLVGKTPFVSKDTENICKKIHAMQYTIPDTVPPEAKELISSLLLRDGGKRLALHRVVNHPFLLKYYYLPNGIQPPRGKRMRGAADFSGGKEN

In turn, `Brc1c(Br)c(Br)c2[nH]nnc2c1Br` [TBB, 4,5,6,7-tetrabromobenzotriazole] had an IC50 on TcCK2α of 500 to 1000 nM.

`O=C(Nc1cccc(Cl)c1)Nc1ncc(CCNc2ncnc3ccsc23)s1` [SNS314]: the “32P-ATP phosphorylation of Tcpolβ, SDS-PAGE autoradiography; over 60% decrease a” value at TcAUK1 was ~ 48 nM.
